Series [1] deals with T1, human CCK-B R (Homo sapiens, UniProt P32239).
T1 construct: expressed in transfected cells
T1 sequence (P32239 1-447): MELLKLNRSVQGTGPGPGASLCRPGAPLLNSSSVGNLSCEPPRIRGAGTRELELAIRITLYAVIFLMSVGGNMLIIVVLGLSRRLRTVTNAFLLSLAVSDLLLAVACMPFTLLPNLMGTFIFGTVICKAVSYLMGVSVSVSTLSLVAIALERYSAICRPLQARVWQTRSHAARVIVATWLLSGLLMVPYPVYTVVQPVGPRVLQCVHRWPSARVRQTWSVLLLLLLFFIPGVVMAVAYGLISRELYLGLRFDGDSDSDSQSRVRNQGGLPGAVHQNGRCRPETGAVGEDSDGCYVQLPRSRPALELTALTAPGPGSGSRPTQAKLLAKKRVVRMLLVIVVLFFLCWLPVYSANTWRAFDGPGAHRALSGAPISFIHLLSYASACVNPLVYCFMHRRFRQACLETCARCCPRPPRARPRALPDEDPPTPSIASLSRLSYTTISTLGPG
Nature of the series: Human CCK-B receptor efficacy assay (AlphaScreen SureFire p-ERK). Type of series: cell-based. Particulars: Table 1; HEK293 cells expressing human CCK-B R, p-ERK; read-out: hCCK-B R EC50. (In Alpha technology, singlet oxygen from a donor bead excites a nearby acceptor bead.)

The target of series [2] is T2, mouse CCK-B R (Mus musculus, UniProt P56481).
T2 construct: expressed in transfected cells
T2 sequence (P56481 1-453): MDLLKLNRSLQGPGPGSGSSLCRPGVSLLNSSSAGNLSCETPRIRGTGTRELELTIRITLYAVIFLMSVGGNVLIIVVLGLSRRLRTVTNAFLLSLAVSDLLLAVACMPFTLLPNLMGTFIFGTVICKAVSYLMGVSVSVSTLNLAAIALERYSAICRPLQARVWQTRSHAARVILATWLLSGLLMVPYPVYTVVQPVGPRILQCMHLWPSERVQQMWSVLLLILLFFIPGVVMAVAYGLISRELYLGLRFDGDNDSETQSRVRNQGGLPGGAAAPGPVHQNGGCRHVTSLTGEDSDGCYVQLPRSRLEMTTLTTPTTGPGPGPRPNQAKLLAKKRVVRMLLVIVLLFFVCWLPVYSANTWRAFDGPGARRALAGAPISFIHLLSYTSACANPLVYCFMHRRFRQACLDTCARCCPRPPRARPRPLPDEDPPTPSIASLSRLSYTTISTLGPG
Nature of the series: Mouse CCK-B receptor efficacy assay (AlphaScreen SureFire p-ERK). The series is classed as cell-based. Particulars: Table 1; HEK293 cells expressing mouse CCK-B R, p-ERK; read-out: mCCK-B R EC50. The text has this:
CCK-B Receptor (CCK-B R) Efficacy Assay:
To test binding and activation of CCK-B R we produced stable cell lines expressing one of the human or mouse CCK receptors in a manner similar to that for production of the hGLP-1 R cell lines were generated (vide supra). In brief, we used HEK293 cells for transfection of the cDNA for human or mouse CCK-A R or CCK-B R [hCCK-A R (gene identity: L19315), hCCK-B R (NM_176875), mCCK-A R (NM_009827) and mCCK-B R (NM_007627)] all cloned into the transfection plasmid pIRESneo2dNGFR. The cells were grown according to standard protocol in growth medium and transfected with the plasmids using Lipofectamin (Invitrogen). The cells stably expressing CCK receptors were selected using G418 in the growth medium (only cells that have taken up and incorporated the cDNA expression plasmid survive) and propagated. Stocks of cells were frozen for later use.
In vitro effects of peptide conjugates of the invention were estimated by measuring p-ERK (using the AlphaScreen™ SureFire p-ERK assay) in HEK293 cells stably expressing the human and mouse CCK-B R (high-affinity Gastrin receptor), respectively. The Gastrin receptor efficacy assays (AlphaScreen™ SureFire p-ERK assay) were performed as follows:
The CCK-B R expressing cells in question were seeded at 20,000 cells/well in 100 μl growth medium [DMEM, 10% FCS, Penicillin (100 IU/ml), Streptomycin (100 μg/ml)] in a 96-well plate coated with poly-D-lysine. The cells were incubated in an incubator (37° C., 5% […]) for two days.
The growth medium was changed to 80 μl of serum-free medium [DMEM, Penicillin (100 IU/ml), Streptomycin (100 μg/ml)] per well, and incubation of the cells was continued for 19 hours in the incubator (37° C., 5% CO2).
• 1. After 19 hours, 20 μl of serum-free medium containing one of 5 different concentrations of peptide conjugate was added (performed in triplicate for each concentration), and the cells were incubated for 5 min. at room temperature. • 2. The stimulation medium was discarded by quickly turning the plate upside down, and 60 μl 1× lysis buffer (from the SureFire assay kit) was added per well. • 3. The plate was shaken on a plate-shaker for 5 min and then placed on ice. • 4. SureFire P-ERK assay: 4 μl of each supernatant was transferred to a 384 well proxiplate (Perkin Elmer). • 5. 4 μl of each of the two control lysates (unstimulated and stimulated) were added to the proxiplate in duplicate. • 6. […] 7 μl of the latter reaction buffer+activation buffer+beads per well were added in the proxiplate, the mix being resuspended carefully before addition to the wells. • 7. The plate was incubated for 2 hours in a dark box in a 22° C. incubator. • 8. The plate was analyzed on an Envision™ light-emission plate reader (Perkin-Elmer) using the appropriate reading program (Perkin-Elmer).

Series [3] in a line: in vivo. Also on record: species or system C57Bl mice. The following applies: mouse, sc, 100 nmol/kg; for half-life: C57Bl. On the procedure:
Two C57Bl mice were given a single subcutaneous dose of 100 nmol/kg of each peptide. […] At each time point, samples from two mice were taken. Plasma samples were analyzed after solid phase extraction (SPE) by liquid chromatography mass spectrometry (LC-MS/MS).

The target in series [4] is T3, human GLP-1 R (Homo sapiens, UniProt P43220).
T3 construct: expressed in transfected cells
T3 sequence (P43220 24-463): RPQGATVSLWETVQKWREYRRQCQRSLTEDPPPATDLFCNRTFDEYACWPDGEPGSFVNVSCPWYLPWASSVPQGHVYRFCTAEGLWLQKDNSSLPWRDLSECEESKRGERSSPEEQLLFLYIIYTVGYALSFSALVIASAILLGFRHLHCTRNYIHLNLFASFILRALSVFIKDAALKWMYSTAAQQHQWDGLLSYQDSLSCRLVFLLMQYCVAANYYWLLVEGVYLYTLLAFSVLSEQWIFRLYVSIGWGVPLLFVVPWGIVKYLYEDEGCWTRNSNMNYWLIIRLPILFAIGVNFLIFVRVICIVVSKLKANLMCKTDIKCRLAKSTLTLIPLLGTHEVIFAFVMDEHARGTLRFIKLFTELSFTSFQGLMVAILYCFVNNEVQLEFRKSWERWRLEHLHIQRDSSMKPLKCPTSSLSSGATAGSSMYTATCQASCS
Nature of the series: Human GLP-1 receptor efficacy assay (cAMP induction, FlashPlate). Type of series: cell-based. Particulars: read-out: hGLP-1 R EC50. On the procedure:
On the day of analysis, growth medium was removed and the cells were washed once with 200 μl Tyrode buffer [Tyrode's Salts (9.6 g/l), 10 mM HEPES, pH 7.4]. […] The reaction was stopped by addition of 25 μl 0.5 M HCl and incubated on ice for 60 min.

Setting [5] is: Table 1, HEK293 cells expressing human GLP-1 R, cAMP.

Like-named read-outs stand apart in the source and are kept apart here. Bridge positions count the residues as written; N and C are the ends. Square brackets hold non-standard residues; d marks the D form. Peptide text beside a SMILES is read from it. AEEA = NCCOCCOCC(=O)O

Broadly, the EC50 is the midpoint of the concentration-response curve. With `CC[C@H](C)[C@H](NC(=O)[C@H](Cc1ccccc1)NC(=O)[C@H](CCC(=O)O)NC(=O)[C@H](CCCCN)NC(=O)[C@H](C)NC(=O)[C@H](C)NC(=O)[C@H](CCC(N)=O)NC(=O)CNC(=O)[C@H](CCC(=O)O)NC(=O)[C@H](CC(C)C)NC(=O)[C@H](Cc1ccc(O)cc1)NC(=O)[C@H](CO)NC(=O)[C@H](CO)NC(=O)[C@@H](NC(=O)[C@H](CC(=O)O)NC(=O)[C@H](CO)NC(=O)[C@@H](NC(=O)[C@H](Cc1ccccc1)NC(=O)[C@@H](NC(=O)CNC(=O)[C@H](CCC(=O)O)NC(=O)[C@H](C)NC(=O)[C@@H](N)Cc1c[nH]cn1)[C@@H](C)O)[C@@H](C)O)C(C)C)C(=O)N[C@@H](C)C(=O)N[C@@H](Cc1c[nH]c2ccccc12)C(=O)N[C@@H](CC(C)C)C(=O)N[C@H](C(=O)N[C@@H](CCCCN)C(=O)NCC(=O)N[C@@H](CCCNC(=N)N)C(=O)NCCCCCCCC(=O)NCCCCCCCC(=O)N[C@@H](CCC(N)=O)C(=O)NCC(=O)N1CCC[C@H]1C(=O)N[C@@H](Cc1c[nH]c2ccccc12)C(=O)N[C@@H](CC(C)C)C(=O)N[C@@H](CCC(=O)O)C(=O)N[C@@H](CCC(=O)O)C(=O)N[C@@H](CCC(=O)O)C(=O)N[C@@H](CCC(=O)O)C(=O)N[C@@H](CCC(=O)O)C(=O)N[C@@H](C)C(=O)N[C@@H](Cc1ccc(O)cc1)C(=O)NCC(=O)N[C@@H](Cc1c[nH]c2ccccc12)C(=O)N[C@@H](CC(C)C)C(=O)N[C@@H](CC(=O)O)C(=O)N[C@@H](Cc1ccccc1)C(N)=O)C(C)C` [Compound 45, GLP-1(7-36)-8Aoc-8Aoc-[Gln1,Leu15]Gastrin17], the EC50 in series [1] was 12.8 nM; in series [2], 71.4 nM.
As a reminder, the half-life is the time needed for the level to fall by half in the phase considered. For `CC[C@H](C)[C@H](NC(=O)[C@H](Cc1ccccc1)NC(=O)[C@H](CC(C)C)NC(=O)[C@H](CCCNC(=N)N)NC(=O)[C@@H](NC(=O)[C@H](C)NC(=O)[C@H](CCC(=O)O)NC(=O)[C@H](CCC(=O)O)NC(=O)[C@H](CCC(=O)O)NC(=O)[C@H](CC(C)C)NC(=O)[C@H](Cc1ccc(O)cc1)NC(=O)[C@H](CCCCN)NC(=O)[C@H](CO)NC(=O)[C@H](CC(C)C)NC(=O)[C@H](CC(=O)O)NC(=O)[C@H](CO)NC(=O)[C@@H](NC(=O)[C@H](Cc1ccccc1)NC(=O)[C@@H](NC(=O)CNC(=O)[C@H](CCC(=O)O)NC(=O)CNC(=O)[C@@H](N)Cc1c[nH]cn1)[C@@H](C)O)[C@@H](C)O)C(C)C)C(=O)N[C@@H](CCC(=O)O)C(=O)N[C@@H](Cc1ccccc1)C(=O)N[C@@H](CC(C)C)C(=O)N[C@@H](CCCCN)C(=O)NCCOCCOCC(=O)NCCOCCOCC(=O)N[C@@H](Cc1ccc(O)cc1)C(=O)NCC(=O)N[C@@H](Cc1c[nH]c2ccccc12)C(=O)N[C@@H](CC(C)C)C(=O)N[C@@H](CC(=O)O)C(=O)N[C@@H](Cc1ccccc1)C(N)=O` [Compound 77, [Tyr13,Leu14,Phe25]Exendin-4(1-27)-Peg3-Peg3-[Leu4]Gastrin6] (H-HGEGTFTSDLSKYLEEEAVRLFIEFLK[AEEA][AEEA]YGWLDF-NH2), in series [3], the half-life was 3.1 h; the “Half-life and exposure (in words)” value was “superior to the rest”. Moreover, the EC50 in series [4] (Table 2) amounted to 0.044 nM.
For `CC[C@H](C)[C@H](NC(=O)[C@H](Cc1ccccc1)NC(=O)[C@H](CC(C)C)NC(=O)[C@@H]1CCCCNC(=O)CC[C@H](NC(=O)[C@H](CCC(=O)O)NC(=O)[C@H](CCSC)NC(=O)[C@H](CCC(N)=O)NC(=O)[C@H](CCCCN)NC(=O)[C@H](CO)NC(=O)[C@H](CC(C)C)NC(=O)[C@H](CC(=O)O)NC(=O)[C@H](CO)NC(=O)[C@@H](NC(=O)[C@H](Cc2ccccc2)NC(=O)[C@@H](NC(=O)CNC(=O)[C@H](CCC(=O)O)NC(=O)CNC(=O)[C@@H](N)Cc2c[nH]cn2)[C@@H](C)O)[C@@H](C)O)C(=O)N[C@@H](CCC(=O)O)C(=O)N[C@@H](C)C(=O)N[C@@H](C(C)C)C(=O)N1)C(=O)N[C@@H](CCC(=O)O)C(=O)N[C@@H](Cc1c[nH]c2ccccc12)C(=O)N[C@@H](CC(C)C)C(=O)N[C@@H](CCCCN)C(=O)N[C@@H](CC(N)=O)C(=O)NCCOCCOCC(=O)NCCOCCOCC(=O)N[C@@H](Cc1ccc(O)cc1)C(=O)NCC(=O)N[C@@H](Cc1c[nH]c2ccccc12)C(=O)N[C@@H](CC(C)C)C(=O)N[C@@H](CC(=O)O)C(=O)N[C@@H](Cc1ccccc1)C(N)=O` [Compound 79, Side chain-cyclo([Glu16,Lys20]Exendin-4(1-28)-Peg3-Peg3-[Leu4]Gastrin6] (H-HGEGTFTSDLSKQMEEEAVKLFIEWLKN[AEEA][AEEA]YGWLDF-NH2; lactam 16-20), the half-life in series [3] is 1.5 h. Moreover, the EC50 in series [4] (Table 2) worked out at 0.026 nM.
As to “H-HAEGTFTSDVSSYLEGQAAKEFIAWLVKGRAAAQGPWLEEEEEAYGWLDF-NH2 [Compound 39, GLP-1(7-36)-AAA-[Gln1,Leu15]Gastrin17]”, the EC50 came out at 18.8 nM in series [1], 0.114 nM in series [4] (setting [5]), 0.034 nM in series [4] (Table 3) and 54.1 nM in series [2].
Taken in the same sequence, the figures for “H-HAEGTFTSDVSSYLEGQAAKEFIAWLVKGRKQGPWLEEEEEAYGWLDF-NH2 [Compound 38, GLP-1(7-36)-K-[Gln1,Leu15]Gastrin17]” were 77.3 nM, 0.0842 nM, 0.03 nM and 114 nM.
Take “H-HAEGTFTSDVSSYLEGQAAKEFIAWLVKGRQGPWLEEEEEAYGWLDF-NH2 [Compound 37, GLP-1(7-36)-[Gln1,Leu15]Gastrin17]”: the EC50 was 25.9 nM in series [1], 0.145 nM in series [4] (setting [5]), 0.03 nM in series [4] (Table 3) and 73.1 nM in series [2].
For “H-HAEGTFTSDVSSYLEGQAAKEFIAWLVKGRSKKQGPWLEEEEEAYGWLDF-NH2 [Compound 40, GLP-1(7-36)-SKK-[Gln1,Leu15]Gastrin17]”, the EC50 in series [1] worked out at 15.6 nM; in series [4] (setting [5]), 0.116 nM; in series [4] (Table 3), 0.031 nM; in series [2], 58.6 nM.

For the origin of these results see US10406207B2, “Peptide conjugates of GLP-1 receptor agonists and gastrin and their use” (priority 2010, dated 2019).
